The target of test [1] is T1, human adenosine A2a receptor (Homo sapiens, UniProt P29274).
T1 construct: expressed in transfected cells; host or cells: CHO-K1
The experiment in a line: Adenosine A2a Receptor Functional Assay (A2AGAL2). In kind it is cell-based. The conditions noted are these: CHO-K1 cells, cAMP inducible beta-galactosidase reporter, 15 nM NECA agonist challenge. The essentials:
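Antagonist mode in CHO-K1 cells expressing human A2a with a cAMP-inducible β-galactosidase reporter (10K cells/well, cultured 2 days). 11-point compound curves preincubated ~15 min at room temperature in Ham's F-12/0.1% BSA, then 15 nM NECA challenge, 5.5–6 h at 37 °C. Colorimetric β-gal read at 405 nm; IC/EC50 fitted.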

Test [2] has as its target T2, human A2a adenosine receptor (Homo sapiens, UniProt P29274).
T2 construct: purchased PerkinElmer RB-HA2a; host or cells: HEK293
The experiment in a line: Ligand Binding Assay for Adenosine A2a Receptor (A2A-B). The conditions noted are these: HEK293 plasma membrane, radioligand [3H]CGS21680. The method, then: Ligand Binding Assay for Adenosine A2a Receptor
Ligand binding assay of adenosine A2a receptor was performed using plasma membrane of HEK293 cells containing human A2a adenosine receptor (PerkinElmer, RB-HA2a) and radioligand [^3H]CGS21680 (PerkinElmer, NET 1021). Assay was set up in 96-well polypropylene plate in total volume of 200 μL by sequentially adding 20 μL 1:20 diluted membrane, 130 μL assay buffer (50 mM Tris.HCl, pH7.4 10 mM MgCl2, 1 mM EDTA) containing [^3H] CGS21680, 50 μL diluted compound (4×) or vehicle control in assay buffer. Nonspecific binding was determined by […] NECA. Reaction was carried out at room temperature for 2 hours before filtering through 96-well GF/C filter plate pre-soaked in 50 mM Tris.HCl, pH7.4 containing 0.3% polyethylenimine. Plates were then washed 5 times with cold 50 mM Tris.HCl, pH7.4, dried and sealed at the bottom. Microscintillation fluid 30 μL was added to each well and the top sealed. Plates were counted on Packard Topcount for [^3H]. Data was analyzed in Microsoft Excel and GraphPad Prism programs. (Varani, K.; Gessi, S.; Dalpiaz, A.; Borea, P. A. British Journal of Pharmacology, 1996, 117, 1693)

In test [3] the target is T3, human adenosine A1 receptor (Homo sapiens, UniProt P30542).
T3 construct: expressed in transfected cells; host or cells: CHO-K1
T3 sequence (P30542 1-326): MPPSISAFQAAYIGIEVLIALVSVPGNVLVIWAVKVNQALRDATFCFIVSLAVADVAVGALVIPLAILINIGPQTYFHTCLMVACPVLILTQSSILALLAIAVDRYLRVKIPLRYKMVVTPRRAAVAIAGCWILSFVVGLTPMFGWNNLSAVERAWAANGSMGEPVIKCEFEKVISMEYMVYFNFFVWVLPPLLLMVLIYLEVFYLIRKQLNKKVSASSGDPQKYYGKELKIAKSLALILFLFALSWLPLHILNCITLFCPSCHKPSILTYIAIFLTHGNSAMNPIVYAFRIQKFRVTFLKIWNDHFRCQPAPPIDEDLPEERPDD
In words: Adenosine A1 Receptor Functional Assay (A1GAL2). The conditions noted are these: CHO-K1 cells, cAMP inducible beta-galactosidase reporter, 4 nM r-PIA/1 uM Forskolin challenge. In kind it is cell-based. In a few lines: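 CHO-K1 cells expressing the receptor with a cAMP-inducible β-galactosidase reporter were preincubated with compound (11-point curves) about 15 min at room temperature, then challenged with r-PIA (4 nM)/forskolin (1 µM) for 5.5–6 h at 37 °C. Lysates were read colorimetrically at 405 nm, and IC/EC50 was obtained by curve fitting.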

For 25 compounds, Ki results are on record in patent US20100093702A1, “METHYLENE AMINES OF THIENO[2,3-d]PYRIMIDINE AND THEIR USE AS ADENOSINE A2a RECEPTOR ANTAGONISTS” (priority 2008, published 2010).

Each structure is given as a SMILES string. pKi: −log10 of the molar value. Where a name gives a salt, the structure may show the parent alone.

T2 sequence (P29274 whole entry): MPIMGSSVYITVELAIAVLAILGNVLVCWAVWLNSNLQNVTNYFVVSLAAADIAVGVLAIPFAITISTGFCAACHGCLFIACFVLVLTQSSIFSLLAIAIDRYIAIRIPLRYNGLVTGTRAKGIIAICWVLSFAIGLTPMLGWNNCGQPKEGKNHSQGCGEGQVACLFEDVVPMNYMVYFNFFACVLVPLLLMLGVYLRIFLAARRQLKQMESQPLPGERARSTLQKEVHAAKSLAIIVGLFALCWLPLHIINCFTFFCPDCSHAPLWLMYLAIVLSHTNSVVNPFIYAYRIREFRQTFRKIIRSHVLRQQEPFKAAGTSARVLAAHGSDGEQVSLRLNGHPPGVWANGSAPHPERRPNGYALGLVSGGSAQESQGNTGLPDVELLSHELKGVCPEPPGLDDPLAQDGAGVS
T1 sequence (P29274 whole entry): as above

Turning to `N#Cc1cccc(-c2nc(N)c3cc(CN4CCCC4)sc3n2)c1` [Example 65, 3-(4-Amino-6-pyrrolidin-1-ylmethyl-thieno[2,3-d]pyrimidin-2-yl)-benzonitrile], the pKi (in general, the negative decadic logarithm of the Ki, by convention in mol/L) in test [1] was under 5.00; in test [2], 7.38; in test [3] it was 6.89.
The like results for `Nc1nc(-c2ccc(Cl)o2)nc2sc(CN3CC=CCC3)cc12` [Example 95, 2-(5-Chloro-furan-2-yl)-6-(3,6-dihydro-2H-pyridin-1-ylmethyl)-thieno[2,3-d]pyrimidin-4-ylamine] were, in that order, 7.97, 8.47 and 6.73.
On to `Nc1nc(-c2ccco2)nc2sc(CN3CC=CCC3)cc12` [Example 98, 6-(3,6-Dihydro-2H-pyridin-1-ylmethyl)-2-furan-2-yl-thieno[2,3-d]pyrimidin-4-ylamine], for which the negative logarithm of the Ki (pKi) in test [1] was 8.05; in test [2], 7.69; in test [3], 6.80.
Turning to `Nc1nc(-c2ccco2)nc2sc(CN3CCC(O)CC3)cc12` [Example 52, 1-(4-Amino-2-furan-2-yl-thieno[2,3-d]pyrimidin-6-ylmethyl)-piperidin-4-ol], the pKi was 6.53 in test [1], 6.66 in test [2] and 5.40 in test [3].
The like results for `Nc1nc(-c2cccs2)nc2sc(CN3CCCC3)cc12` [Example 30, 6-Pyrrolidin-1-ylmethyl-2-thiophen-2-yl-thieno[2,3-d]pyrimidin-4-ylamine] were, in that order, 6.94, 6.86 and under 5.00.
The corresponding values for `Nc1nc(-c2cocn2)nc2sc(CN3CC=CC3)cc12` [Example 69, 6-(2,5-Dihydro-pyrrol-1-ylmethyl)-2-oxazol-4-yl-thieno[2,3-d]pyrimidin-4-ylamine] are 6.62, 5.99 and 5.41.
Turning to `N#Cc1cccc(-c2nc(N)c3cc(CN4CC=CC4)sc3n2)c1` [Example 64, 3-[4-Amino-6-(2,5-dihydro-pyrrol-1-ylmethyl)-thieno[2,3-d]pyrimidin-2-yl]-benzonitrile], the pKi was 7.08 in test [1], 7.11 in test [2] and 5.69 in test [3].
On to `Nc1nc(C2CC2)nc2sc(CN3CC=CCC3)cc12` [Example 96, 2-Cyclopropyl-6-(3,6-dihydro-2H-pyridin-1-ylmethyl)-thieno[2,3-d]pyrimidin-4-ylamine], for which the results for the pKi in test [1], in test [2] and in test [3] were 6.49, 5.79 and 5.52, respectively.
On to `COc1cccc(-c2nc(N)c3cc(CN4CC=CCC4)sc3n2)c1` [Example 80, 6-(3,6-Dihydro-2H-pyridin-1-ylmethyl)-2-(3-methoxy-phenyl)-thieno[2,3-d]pyrimidin-4-ylamine], for which the figures for the pKi in test [1], in test [2] and in test [3] were 6.99, 6.74 and 5.97, respectively.
In the case of `Cc1ccc(-c2nc(N)c3cc(CN4CCCC4)sc3n2)o1` [Example 39, 2-(5-Methyl-furan-2-yl)-6-pyrrolidin-1-ylmethyl-thieno[2,3-d]pyrimidin-4-ylamine], the negative logarithm of the Ki (pKi) in test [1] was 7.59; in test [2], 7.96; in test [3], 6.21.
On to `Cn1cccc1-c1nc(N)c2cc(CN3CCC(F)CC3)sc2n1` [Example 78, 6-(4-Fluoro-piperidin-1-ylmethyl)-2-(1-methyl-1H-pyrrol-2-yl)-thieno[2,3-d]pyrimidin-4-ylamine], for which the pKi is 6.20 in test [1], 6.13 in test [2] and 5.80 in test [3].
With `Nc1nc(-c2ccc(Cl)o2)nc2sc(CN3CC=CC3)cc12` [Example 97, 2-(5-Chloro-furan-2-yl)-6-(2,5-dihydro-pyrrol-1-ylmethyl)-thieno[2,3-d]pyrimidin-4-ylamine], the figures for the pKi in test [1], in test [2] and in test [3] were 7.99, 9.27 and 6.11, respectively.
As to `N#Cc1ccccc1-c1nc(N)c2cc(CN3CCC(F)CC3)sc2n1` [Example 73, 2-[4-Amino-6-(4-fluoro-piperidin-1-ylmethyl)-thieno[2,3-d]pyrimidin-2-yl]-benzonitrile], the negative-log Ki (pKi) in test [1] is 5.99; in test [2], 5.69; in test [3], 5.30.
As for `Nc1nc(-c2ccco2)nc2sc(CNC34CC5CC(CC(C5)C3)C4)cc12` [Example 91, 6-(Adamantan-1-ylaminomethyl)-2-furan-2-yl-thieno[2,3-d]pyrimidin-4-ylamine], the values for the pKi in test [1], in test [2] and in test [3] were 6.92, 7.82 and 5.99, respectively.
As for `N#Cc1ccc(-c2nc(N)c3cc(CN4CC=CCC4)sc3n2)cc1` [Example 63, 4-[4-Amino-6-(3,6-dihydro-2H-pyridin-1-ylmethyl)-thieno[2,3-d]pyrimidin-2-yl]-benzonitrile], the figures for the negative logarithm of the Ki (pKi) in test [1], in test [2] and in test [3] were 6.75, 6.82 and 5.79, respectively.
Turning to `N#Cc1cccc(-c2nc(N)c3cc(CN4CCCC(F)(F)C4)sc3n2)c1` [Example 62, 3-[4-Amino-6-(3,3-difluoro-piperidin-1-ylmethyl)-thieno[2,3-d]pyrimidin-2-yl]-benzonitrile], the results for the negative-log Ki (pKi) in test [1], in test [2] and in test [3] were 7.30, 6.42 and 5.93, respectively.
The corresponding values for `CC(C)c1ccccc1-c1nc(N)c2cc(CN3CCC(F)CC3)sc2n1` [Example 79, 6-(4-Fluoro-piperidin-1-ylmethyl)-2-(2-isopropyl-phenyl)-thieno[2,3-d]pyrimidin-4-ylamine] are 5.98, 5.13 and 5.35.
Regarding `Cc1ccc(-c2nc(N)c3cc(CN4CCc5ccccc5C4)sc3n2)o1` [Example 41, 6-(3,4-Dihydro-1H-isoquinolin-2-ylmethyl)-2-(5-methyl-furan-2-yl)-thieno[2,3-d]pyrimidin-4-ylamine], the values for the negative-log Ki (pKi) in test [1], in test [2] and in test [3] were 6.69, 6.73 and 5.48, respectively.
`Nc1nc(-c2ccc(Cl)o2)nc2sc(CN3CCCC3)cc12` [Example 90, 2-(5-Chloro-furan-2-yl)-6-pyrrolidin-1-ylmethyl-thieno[2,3-d]pyrimidin-4-ylamine hydrochloride]: the negative-log Ki (pKi) in test [1] was 7.65; in test [2] it was 8.43; in test [3], 6.15.
Consider `Nc1nc(-c2cocn2)nc2sc(CN3CC=CCC3)cc12` [Example 70, 6-(3,6-Dihydro-2H-pyridin-1-ylmethyl)-2-oxazol-4-yl-thieno[2,3-d]pyrimidin-4-ylamine], for which the figures for the negative logarithm of the Ki (pKi) in test [1], in test [2] and in test [3] were 6.62, 6.41 and 5.53, respectively.
The like results for `Nc1nc(-c2ccc(Br)o2)nc2sc(CN3CCCC3)cc12` [Example 35, 2-(5-Bromo-furan-2-yl)-6-pyrrolidin-1-ylmethyl-thieno[2,3-d]pyrimidin-4-ylamine] were, in that order, 7.66, 7.82 and 6.10.
As for `C[C@@H]1CCC[C@H](C)N1Cc1cc2c(N)nc(-c3ccco3)nc2s1` [Example 44, 6-(2,6-Dimethyl-piperidin-1-ylmethyl)-2-furan-2-yl-thieno[2,3-d]pyrimidin-4-ylamine], the pKi is 8.25 in test [1], 8.85 in test [2] and 7.00 in test [3].
The like results for `Nc1nc(-c2ccc(Br)o2)nc2sc(CN3CCOCC3)cc12` [Example 7, 2-(5-Bromo-furan-2-yl)-6-morpholin-4-ylmethyl-thieno[2,3-d]pyrimidin-4-ylamine] were, in that order, 7.74, 6.69 and 6.16.
As to `N#Cc1cccc(-c2nc(N)c3cc(CN4CCSCC4)sc3n2)c1` [Example 83, 3-(4-Amino-6-thiomorpholin-4-ylmethyl-thieno[2,3-d]pyrimidin-2-yl)-benzonitrile], the negative logarithm of the Ki (pKi) in test [1] is 7.19; in test [2], 6.55; in test [3], 5.75.
With `Nc1nc(-c2ccco2)nc2sc(CN3CCCC3)cc12` [Example 28, 2-Furan-2-yl-6-pyrrolidin-1-ylmethyl-thieno[2,3-d]pyrimidin-4-ylamine], the pKi is 7.55 in test [1], 7.84 in test [2] and 5.19 in test [3].
